According to US4264577A, “Contraceptive methods and compositions” (Eli Lilly and Company, priority 1980, dated 1981):
“And” between values parts separate entries of the source, which are not always exact repeats. Identical values can stand only once.

Assays:
[1] = target: T1, Acrosin (purified from boar sperm) (Sus scrofa, UniProt P08001); experiment: Acrosin inhibition in vitro (BAPNA substrate); type: biochemical; settings: sodium salts
T1 construct: purified from boar sperm; from tissue; host or cells: boar sperm
Protocol: A control using the buffer solution without the test compound added is also run. A 200 μl-sample of the incubation mixture is then withdrawn and is added to a cuvette containing BAPNA (1 ml.) and triethanolamine buffer (2 ml.). The mixture is stirred and placed in a Gilford recording spectrophotometer. The increase in optical density at 383 nm is measured. One unit of acrosin activity is defined as the amount of acrosin which will cause an increase in optical density at 383 nm. of 0.001/minute. One unit of inhibitory activity is defined as the amount of inhibitor which will cause a reduction in the increase in optical density at 383 nm. of 0.001/minute.

[2] = test system: virgin dutch belted female rabbit; experiment: Antifertility effect by intravaginal administration (K-Y jelly mixture); type: in vivo; settings: 1 ml of K-Y jelly mixed with equal volume of 10 mg./ml. solution, 4 animals
Protocol: Equal volumes of K-Y-jelly® and either Ca^++ free Ringer's solution or a 10 mg./ml. solution of the compound to be tested in Ca^++ free Ringer's solution are well mixed. One milliliter of this is placed into the vagina of a virgin dutch belted female rabbit using a syringe. The female is then immediately bred to a fertile buck. The female is injected I.V. with […] of human chorionic gonadotrophin to assure a good ovulation rate.
After approximately 14 days the females are sacrificed by cervical dislocation and the genital system examined for the number of embryos.

[3] = Drug release rate in vivo, intrauterine medicated rubber rods; design: species or system rabbit; settings: uterine horn
Protocol: (a) Dimethylpolysiloxane rubber rods (3 mm. diameter shaved to 2 mm.) weighing 40 mg. each and containing 5, 10, or 20% (W/W) of sodium n-tetradecyl sulfate (prepared by Example 3, Method B, lots 218-1, 225-1, and 218-2, respectively) are inserted into the right uterine horn of virgin Dutch -belted female rabbits, as follows:
After 60 days the animals in Group 1 are sacrificed and the rubber rods are removed, washed, and extracted continuously with methanol for 24 hours to remove the remaining sodium n-tetradecyl sulfate. The methanol extract is evaporated. The residue is dissolved in 10% methanol-water and assayed for sodium n-tetradecyl sulfate by the methylene blue method. The amount of active compound remaining in the rod is subtracted from the amount originally present in the rod, and the difference is assumed to be the amount released during the time period. After 120 days or […] the animals in Group 2 and Group 3, respectively, are sacrificed, and the rods were removed and treated as above described. The release of sodium n-tetradecyl sodium sulfate into the uterine fluids, as determined by the afore-described test procedure, after 60, 120, and 180 days is shown in Table 8, below: […]

rabbits = experiment: Efficacy in vivo, rods sutured into both uterine horns, bred weekly; design: species or system rabbit; settings: five rabbits, rods 20% (W/W) in both uterine horns, bred weekly for 225 days
Text: (b) Five rabbits having rods containing 20% (W/W) sodium tetradecyl
sulfate (as described above) sutured into both uterine horns were bred

female rabbits = experiment: Drug release rate and efficacy in vivo, intravaginal medicated rubber rings; design: species or system rabbit; settings: vaginal ring 500 mg, 20% W/W; for Amount of sodium n-tetradecyl sulfate released. (μg. per day): per animal; for No. of Embryos (per animal): sulfate
Protocol: Dimethylpolysiloxane rods (4 mm. diameter) weighing 500 mg. and containing 20% (W/W) sodium n-tetradecyl sulfate (prepared by Example 3, Method B, lot no. 225-3) are formed into a circle of approximately 20 mm. diameter. The rings are inserted into the vagina of female rabbits and are held in place by sutures. The rabbits are bred either 7 or 32 days after insertion of the rings. Eleven days after breeding, the animals are sacrificed and the genital system examined for pregnancy. The rings are removed, washed, and extracted with methanol (24 hour continuous,) to remove the remaining sodium n-tetradecyl sulfate. The amount of active compound is determined by the methylene blue method, as described in Part A, above. The amount of sodium n-tetradecyl sulfate remaining in the circular rod is subtracted from the original amount present, and the difference is assumed to be the amount released over the time period.

[4] = test system: cumulus oophorus of rabbit ova; experiment: Removal of cumulus oophorus from ova by hyaluronidase, in vitro; type: cell-based; settings: 10 μl. of 10 mg./ml. solution in 1 ml medium, 37° C.; sulfate
Protocol: In the absence of sodium n-tetradecyl sulfate, complete removal of the cumulus oophorus and zona pellucida is observed.
Female rabbits are given 100 units of pregnant mares serum (PMS), IM, and 134 units of HCG, IV. After 13 hours the animals are sacrificed, and the ovaries are excised. The ovaries are submerged in calcium-free Ringer's solution containing 20% rabbit serum which had been heated to 55° C. for 20 minutes. Ova with cumulus intact are removed and placed in calcium-free Ringer's solution for incubation at 37° C. Hyaluronidase (10 μl.) of a 10 mg./ml. solution in calcium-free Ringer's solution is added to 20 ova in 1 ml. of the incubation medium. To 10 ova in the same medium is added 10 μl. of a solution of sodium n-tetradecyl sulfate (10 mg./ml.) in calcium-free Ringer's solution. To 10 other ova in the same media is added 10 μl. of calcium-free Ringer's solution as control. The mixtures are incubated at 37° C., and the cumulus oophorus is examined at 15 minute intervals with an American Optical stereomicroscope. In the absence of sodium tetradecyl sulfate, the cumulus oophorus is completely removed.

[5] = test system: female Dutch belted rabbits; experiment: Efficacy of a vaginal suppository in female rabbits; type: in vivo, rabbit; settings: 100 mg. PEG suppository with 1 mg. compound, 15 minutes before breeding; 6 animals; after 12 days
Protocol: Suppositories weighing 100 mg. are made to contain 1 mg. of sodium n-tetradecyl sulfate in a vehicle consisting of 35% polyethylene glycol 400, 35% polyethylene glycol 1540, and 30% polyethylene glycol 4000. A suppository is placed in the vagina of each of six female Dutch belted rabbits. After 15 minutes, each rabbit is bred to a buck of proven fertility and is injected with 100 I.U. of human chorionic gonadotropin. Each of six control animals are similarly treated using identical 100 mg. suppositories made from the same vehicle without the active compound. The animals are sacrificed after 12 days and are examined for embryos.

mice = settings: I.P. (mice); cited from earlier work

T1 sequence (P08001 40-338 limits assumed): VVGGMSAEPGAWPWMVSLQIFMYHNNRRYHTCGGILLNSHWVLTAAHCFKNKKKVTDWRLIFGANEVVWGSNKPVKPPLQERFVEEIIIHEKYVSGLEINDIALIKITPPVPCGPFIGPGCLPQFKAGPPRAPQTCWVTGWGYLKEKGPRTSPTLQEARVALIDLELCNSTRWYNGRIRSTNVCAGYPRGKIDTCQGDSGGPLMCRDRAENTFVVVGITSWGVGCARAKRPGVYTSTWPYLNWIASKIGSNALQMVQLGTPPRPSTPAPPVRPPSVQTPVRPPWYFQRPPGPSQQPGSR
T1 sequence (P08001 17-39 limits assumed): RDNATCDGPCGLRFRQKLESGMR

CCCCCCCCCCCCCCOS(=O)(=O)[O-].[Na+] [n-tetradecyl, sodium n-tetradecyl sulfate]
Inhibition (units/mg.) ([1]; Conc. of Test Solution 1 Mg/ml): 960,000 units/mg.
Inhibition (units/mg.) ([1]; Conc. of Test Solution 10 Mg/ml): 14,200 units/mg.
Avg. No. of Embryos per animal [2]: 0
No. of embryos [2]: 0
Amount of sodium n-tetradecyl sulfate released (μg. per day) ([3]; 5% compound in rod, 60 days): 2.25 μg. per day
Amount of sodium n-tetradecyl sulfate released (μg. per day) ([3]; 5% compound in rod, 120 days): 1.80 μg. per day
Amount of sodium n-tetradecyl sulfate released (μg. per day) ([3]; 5% compound in rod, 180 days): 3.60 μg. per day
Amount of sodium n-tetradecyl sulfate released (μg. per day) ([3]; 10% compound in rod, 60 days): 22.1 μg. per day
Amount of sodium n-tetradecyl sulfate released (μg. per day) ([3]; 10% compound in rod, 120 days): 13.7 μg. per day
Amount of sodium n-tetradecyl sulfate released (μg. per day) ([3]; 20% compound in rod, 60 days): 62.4 μg. per day
Amount of sodium n-tetradecyl sulfate released (μg. per day) ([3]; 20% compound in rod, 120 days): 33.5 μg. per day
pregnancies (rabbits): without any pregnancies noted
Amount of sodium n-tetradecyl sulfate released. (μg. per day) (female rabbits; after seven days): 760 μg. per day and 470 μg. per day and 961 μg. per day and 277 μg. per day and 894 μg. per day
Amount of sodium n-tetradecyl sulfate released. (μg. per day) (female rabbits; after thirty-two days): 644 μg. per day and 522 μg. per day and 288 μg. per day
No. of Embryos (per animal) (female rabbits; bred after seven days): 0 and 8 and 5
No. of Embryos (per animal) (female rabbits; bred after thirty-two days): 0 and 3
state of cumulus oophorus in presence of hyaluronidase [4]: remains substantially intact
Embryos Per Animal (x + std. dev.) [5]: 0.5 ± 1.2
Total No. of embryos [5]: 3
LD50 (mice): 342 mg/kg
